How the values were obtained:
porcine bronchi = test: Toxicity and histopathological evaluation after injections in all lobes of the lungs of porcine subjects; type: in vivo
Procedure: Four porcine subjects were treated with two different drugs to test pharmacokinetics and toxicity in porcine bronchi. Dexamethasone was administered to 2 animals at low (1 mg/mL), medium (2 mg/mL), and high (4 mg/mL) doses. The other drug, α-1-antitrypsin (Alpha-1-antitrypsin or A1AT), was administered to the remaining animals at low (2 mg/mL), medium (10 mg/mL), and high (50 mg/mL) doses. The drugs were administered via injections in all lobes of the lungs at the varying dosages.
All animals survived until a scheduled termination and were sacrificed on day 30. All four animals had limited necropsies completed.
This group was comprised of 2 animals. Both animals received low dose treatment in the right upper and middle lung lobes, and mid dose treatment in the right lower lung lobe. One subject received high dose treatment in the left upper lung lobe. Another subject received high dose treatment in the left upper and lower lung lobes.
This group was comprised of 2 animals. Both animals received low dose treatment in the right upper and middle lung lobes, and mid dose treatment in the right lower lung lobe. One subject received high dose treatment in the left lower lung lobe, and the other received high dose treatment in the left upper lung lobe.

[1] = oral administration, cited from earlier work
bronchial walls = test: Bronchial wall injections in a porcine subject: bronchoconstriction challenge and relief; type: in vivo; details: for Effect of injection into methacholine-narrowed segments (bronchodilation): 0.1 to 0.5 mL injected into narrowed bronchial segments
Procedure: In another animal study, one porcine subject was utilized. The animal received multiple injections in the bronchial wall of sub-selected bronchi. First injections of methacholine in concentrations of 0.3 or 3.0 mg/mL and volumes of 0.1 to 0.5 mL were made into bronchial walls throughout the airway tree.

[2] = 0.3 or 3.0 mg/mL, 0.1 to 0.5 mL into bronchial walls

| Compound | Findings in bronchial or bronchiolar walls (porcine bronchi; pig, in vivo) | Gross or histopathological changes in the lung related to toxic effects (porcine bronchi; pig, in vivo) | Inflammatory cell infiltrates in lung sections (considered a background change) (porcine bronchi; pig, in vivo) | Effect of injection into methacholine-narrowed segments (bronchodilation) (bronchial walls) | further results |
| --- | --- | --- | --- | --- | --- |
| C[C@@H]1C[C@H]2[C@@H]3CCC4=CC(=O)C=C[C@]4(C)[C@@]3(F)[C@@H](O)C[C@]2(C)[C@@]1(O)C(=O)CO [Dexamethasone] | no abnormal findings | did not induce any gross or histopathological changes | minimal multifocal inflammatory cell infiltrates |  | Histopathological examination of the lung tissues (porcine bronchi; porcine, injections in lung lobes at low, medium and high doses, sacrificed on day 30): normal lung architecture |
| CN(Cc1cnc2nc(N)nc(N)c2n1)c1ccc(C(=O)N[C@@H](CCC(=O)O)C(=O)O)cc1 [MTX, Methotrexate] |  |  |  |  | Onset of action ([1]; patients): 4-6 weeks; Patients having some response [1]: 70% |
| CC(C)(C)NC[C@H](O)c1ccc(O)c(CO)c1 [levalbuterol] |  |  |  | immediate bronchodilation |  |
| CC(=O)OC(C)C[N+](C)(C)C (centres unmarked) [methacholine] |  |  |  |  | Duration of bronchoconstriction (bronchial walls; [2]): more than 30 minutes; Effect of injection on the airway (bronchoconstriction) (bronchial walls; [2]): immediate bronchoconstriction |
| C[N+]1(C)[C@@H]2C[C@@H](OC(=O)C(O)(c3cccs3)c3cccs3)C[C@H]1[C@@H]1O[C@@H]12 [tiotropium bromide] |  |  |  | immediate bronchodilation |  |
| α-1-antitrypsin [A1AT] | no abnormal findings | did not induce any gross or histopathological changes | minimal multifocal inflammatory cell infiltrates |  | Histopathological examination of the lung tissues (porcine bronchi; pig, in vivo): normal lung architecture |

From patent US20170056621A1, “LOCAL ADMINISTRATION OF DRUGS FOR THE TREATMENT OF ASTHMA” (Mercator MedSystems, Inc., priority 2015, published 2017)
